ChEMBL document CHEMBL1201861, “Genomics of Drug Sensitity in Cancer screening data, Wellcome Trust Sanger Institute”

Legend:
Experiment in all cases: cells
[1] = tested on: SW1417; format: functional, cell-based, Homo sapiens; conditions: Homo sapiens, SW1417;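 also: growth inhibition of human SW1417 cells, read out with a cell viability assay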
Description: SANGER: Inhibition of human SW1417 cell growth in a cell viability assay.

[2] = tested on: NB69; format: functional, cell-based, Homo sapiens; conditions: Homo sapiens, NB69;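 also: growth inhibition of NB69 cells, determined by a cell viability assay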
Description: SANGER: Inhibition of human NB69 cell growth in a cell viability assay.

[3] = tested on: SCC-25; format: functional, cell-based, Homo sapiens; conditions: Homo sapiens, SCC-25;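 also: growth inhibition of SCC-25 cells, measured with a cell viability assay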
Description: SANGER: Inhibition of human SCC-25 cell growth in a cell viability assay.

[4] = tested on: NB6; format: functional, cell-based, Homo sapiens; conditions: Homo sapiens, NB6;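 also: growth inhibition of NB6 cells, read out by a cell viability assay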
Description: SANGER: Inhibition of human NB6 cell growth in a cell viability assay.

[5] = tested on: KYSE-180; format: functional, cell-based, Homo sapiens; conditions: Homo sapiens, KYSE-180;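 also: growth inhibition of KYSE-180 cells, read out with a cell viability assay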
Description: SANGER: Inhibition of human KYSE-180 cell growth in a cell viability assay.

[6] = tested on: SNU-387; format: functional, cell-based, Homo sapiens; conditions: Homo sapiens, SNU-387
Description: SANGER: Inhibition of human SNU-387 cell growth in a cell viability assay.

[7] = tested on: COLO-668; format: functional, cell-based, Homo sapiens; conditions: Homo sapiens, COLO-668
Description: SANGER: Inhibition of human COLO-668 cell growth in a cell viability assay.

[8] = tested on: M059J; format: functional, cell-based, Homo sapiens; conditions: Homo sapiens, M059J;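 also: growth inhibition of M059J cells, read out with a cell viability assay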
Description: SANGER: Inhibition of human M059J cell growth in a cell viability assay.

[9] = tested on: MFM-223; format: functional, cell-based, Homo sapiens; conditions: Homo sapiens, MFM-223
Description: SANGER: Inhibition of human MFM-223 cell growth in a cell viability assay.

[10] = tested on: SK-N-FI; format: functional, cell-based, Homo sapiens; conditions: Homo sapiens, SK-N-FI;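 also: cell viability assay measuring growth inhibition of human SK-N-FI cells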
Description: SANGER: Inhibition of human SK-N-FI cell growth in a cell viability assay.

[11] = tested on: TE-5; format: functional, cell-based, Homo sapiens; conditions: Homo sapiens, TE-5;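 also: inhibition of cell growth, read out by a cell viability assay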
Description: SANGER: Inhibition of human TE-5 cell growth in a cell viability assay.

[12] = tested on: HuP-T4; format: functional, cell-based, Homo sapiens; conditions: Homo sapiens, HuP-T4;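 also: cell viability assay measuring how much HuP-T4 cell growth is inhibited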
Description: SANGER: Inhibition of human HuP-T4 cell growth in a cell viability assay.

[13] = tested on: NB17; format: functional, cell-based; conditions: Homo sapiens;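 also: growth inhibition of NB17 cells, read out with a cell viability assay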
Description: SANGER: Inhibition of human NB17 cell growth in a cell viability assay.

[14] = tested on: BFTC-905; format: functional, cell-based, Homo sapiens; conditions: Homo sapiens, BFTC-905
Description: SANGER: Inhibition of human BFTC-905 cell growth in a cell viability assay.

[15] = tested on: NCI-H1355; format: functional, cell-based, Homo sapiens; conditions: Homo sapiens, NCI-H1355;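 also: growth inhibition of human NCI-H1355 cells, read out by a cell viability assay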
Description: SANGER: Inhibition of human NCI-H1355 cell growth in a cell viability assay.

[16] = tested on: SK-MEL3; format: functional, cell-based, Homo sapiens, SK-MEL-3; conditions: Homo sapiens, SK-MEL3;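 also: growth inhibition of human SK-MEL-3 cells, read out with a cell viability assay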
Description: SANGER: Inhibition of human SK-MEL-3 cell growth in a cell viability assay.

[17] = tested on: QIMR-WIL; format: functional, cell-based; conditions: Homo sapiens;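 also: growth inhibition of QIMR-WIL cells, read out with a cell viability assay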
Description: SANGER: Inhibition of human QIMR-WIL cell growth in a cell viability assay.

[18] = tested on: RPMI-8866; format: functional, cell-based; conditions: Homo sapiens
Description: SANGER: Inhibition of human RPMI-8866 cell growth in a cell viability assay.

[19] = tested on: IST-MES1; format: functional, cell-based, Homo sapiens; conditions: Homo sapiens, IST-MES1;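 also: growth inhibition of IST-MES1 cells, measured with a cell viability assay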
Description: SANGER: Inhibition of human IST-MES1 cell growth in a cell viability assay.

[20] = tested on: NCI-H1304; format: functional, cell-based; conditions: Homo sapiens;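 also: growth inhibition of the cancer cell line, measured in a cell viability assay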
Description: SANGER: Inhibition of human NCI-H1304 cell growth in a cell viability assay.

[21] = tested on: COR-L23; format: functional, cell-based, Homo sapiens; conditions: Homo sapiens, COR-L23;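 also: cell viability assay measuring how strongly compounds suppress growth of COR-L23 cells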
Description: SANGER: Inhibition of human COR-L23 cell growth in a cell viability assay.

[22] = tested on: U-118-MG; format: functional, cell-based, Homo sapiens; conditions: Homo sapiens, U-118-MG
Description: SANGER: Inhibition of human U-118-MG cell growth in a cell viability assay.

[23] = tested on: HuP-T3; format: functional, cell-based, Homo sapiens; conditions: Homo sapiens, HuP-T3;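 also: HuP-T3 cell growth inhibition, read out with a cell viability assay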
Description: SANGER: Inhibition of human HuP-T3 cell growth in a cell viability assay.

[24] = tested on: COR-L105; format: functional, cell-based, Homo sapiens; conditions: Homo sapiens, COR-L105;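 also: cell growth inhibition determined with a viability assay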
Description: SANGER: Inhibition of human COR-L105 cell growth in a cell viability assay.

[25] = tested on: A 172; format: functional, cell-based, Homo sapiens; conditions: Homo sapiens, A 172;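 also: growth inhibition of A172 cells, measured with a cell viability readout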
Description: SANGER: Inhibition of human A172 cell growth in a cell viability assay.

[26] = tested on: NCI-H209; format: functional, cell-based; conditions: Homo sapiens;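 also: growth inhibition of human NCI-H209 cells, measured by a cell viability assay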
Description: SANGER: Inhibition of human NCI-H209 cell growth in a cell viability assay.

[27] = tested on: CAPAN-1; format: functional, cell-based, Homo sapiens; conditions: Homo sapiens, CAPAN-1;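 also: growth suppression of CAPAN-1 cells, read out by a cell viability assay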
Description: SANGER: Inhibition of human CAPAN-1 cell growth in a cell viability assay.

[28] = tested on: CCRF-CEM; format: functional, cell-based; conditions: Homo sapiens;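 also: inhibition of CCRF-CEM cell growth, measured by a cell viability assay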
Description: SANGER: Inhibition of human CCRF-CEM cell growth in a cell viability assay.

[29] = tested on: LNCaP-Clone-FGC; format: functional, cell-based, Homo sapiens; conditions: Homo sapiens, LNCaP-Clone-FGC
Description: SANGER: Inhibition of human LNCaP-Clone-FGC cell growth in a cell viability assay.

[30] = tested on: NCI-H1651; format: functional, cell-based, Homo sapiens; conditions: Homo sapiens, NCI-H1651;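 also: Read-out is a cell viability assay, with IC50 expressing inhibition of NCI-H1651 cell growth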
Description: SANGER: Inhibition of human NCI-H1651 cell growth in a cell viability assay.

[31] = tested on: GAMG; format: functional, cell-based, Homo sapiens; conditions: Homo sapiens, GAMG;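 also: cell growth inhibition measured by a viability assay in the GAMG human cell line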
Description: SANGER: Inhibition of human GAMG cell growth in a cell viability assay.

[32] = tested on: UACC-257; format: functional, cell-based, Homo sapiens; conditions: Homo sapiens, UACC-257
Description: SANGER: Inhibition of human UACC-257 cell growth in a cell viability assay.

[33] = tested on: EW-18; format: functional, cell-based; conditions: Homo sapiens;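 also: growth inhibition of EW-18 cells, read out by a cell viability assay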
Description: SANGER: Inhibition of human EW-18 cell growth in a cell viability assay.

[34] = tested on: MLMA; format: functional, cell-based, Homo sapiens; conditions: Homo sapiens, MLMA;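 also: growth inhibition of MLMA cells (human), determined through a cell viability readout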
Description: SANGER: Inhibition of human MLMA cell growth in a cell viability assay.

[35] = tested on: MCF7; format: functional, cell-based, Homo sapiens; conditions: Homo sapiens, MCF7;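 also: growth inhibition of human MCF7 cells, read out with a cell viability assay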
Description: SANGER: Inhibition of human MCF7 cell growth in a cell viability assay.

[36] = tested on: COR-L88; format: functional, cell-based; conditions: Homo sapiens;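 also: growth inhibition of COR-L88 cells, read out with a cell viability assay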
Description: SANGER: Inhibition of human COR-L88 cell growth in a cell viability assay.

[37] = tested on: ABC-1; format: functional, cell-based, Homo sapiens; conditions: Homo sapiens, ABC-1;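 also: growth inhibition of human ABC-1 cells, read out by a cell viability assay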
Description: SANGER: Inhibition of human ABC-1 cell growth in a cell viability assay.

[38] = tested on: CAL-27; format: functional, cell-based, Homo sapiens; conditions: Homo sapiens, CAL-27;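 also: Viability-based readout, IC50 reflecting inhibition of CAL-27 cell growth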
Description: SANGER: Inhibition of human CAL-27 cell growth in a cell viability assay.

[39] = tested on: OVCAR-8; format: functional, cell-based, Homo sapiens; conditions: Homo sapiens, OVCAR-8;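 also: growth inhibition of human OVCAR-8 cells, read out by a cell viability assay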
Description: SANGER: Inhibition of human OVCAR-8 cell growth in a cell viability assay.

[40] = tested on: NCI-H358; format: functional, cell-based, Homo sapiens; conditions: Homo sapiens, NCI-H358;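 also: growth inhibition of NCI-H358 human cells, read out with a cell viability assay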
Description: SANGER: Inhibition of human NCI-H358 cell growth in a cell viability assay.

[41] = tested on: EFO-27; format: functional, cell-based, Homo sapiens; conditions: Homo sapiens, EFO-27;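 also: growth inhibition of EFO-27 cells, read out with a cell viability assay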
Description: SANGER: Inhibition of human EFO-27 cell growth in a cell viability assay.

[42] = tested on: GMS-10; format: functional, cell-based, Homo sapiens; conditions: Homo sapiens, GMS-10;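 also: growth inhibition of GMS-10 cells, read out as cell viability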
Description: SANGER: Inhibition of human GMS-10 cell growth in a cell viability assay.

[43] = tested on: BHY; format: functional, cell-based, Homo sapiens; conditions: Homo sapiens, BHY;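 also: cell growth inhibition read out by a viability assay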
Description: SANGER: Inhibition of human BHY cell growth in a cell viability assay.

[44] = tested on: EW-24; format: functional, cell-based; conditions: Homo sapiens;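 also: human EW-24 cancer cell line, growth inhibition read out via a cell viability assay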
Description: SANGER: Inhibition of human EW-24 cell growth in a cell viability assay.

[45] = tested on: SW1463; format: functional, cell-based, Homo sapiens; conditions: Homo sapiens, SW1463;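 also: growth inhibition of SW1463 cells, determined with a cell viability assay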
Description: SANGER: Inhibition of human SW1463 cell growth in a cell viability assay.

[46] = tested on: NCI-H23; format: functional, cell-based, Homo sapiens; conditions: Homo sapiens, NCI-H23;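 also: cell viability assay measuring growth inhibition of NCI-H23 cells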
Description: SANGER: Inhibition of human NCI-H23 cell growth in a cell viability assay.

[47] = tested on: HDLM-2; format: functional, cell-based; conditions: Homo sapiens;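 also: cell viability assay measuring suppression of HDLM-2 proliferation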
Description: SANGER: Inhibition of human HDLM-2 cell growth in a cell viability assay.

[48] = tested on: U2OS; format: functional, cell-based, Homo sapiens, U-2-OS; conditions: Homo sapiens, U2OS;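 also: growth inhibition of human U-2-OS cells, determined with a cell viability assay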
Description: SANGER: Inhibition of human U-2-OS cell growth in a cell viability assay.

[49] = tested on: TE-10; format: functional, cell-based, Homo sapiens; conditions: Homo sapiens, TE-10;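 also: growth inhibition of TE-10 cells, measured by a cell viability assay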
Description: SANGER: Inhibition of human TE-10 cell growth in a cell viability assay.

[50] = tested on: IST-MEL1; format: functional, cell-based, Homo sapiens; conditions: Homo sapiens, IST-MEL1;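 also: growth inhibition of the cell line, read out with a cell viability assay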
Description: SANGER: Inhibition of human IST-MEL1 cell growth in a cell viability assay.

[51] = tested on: EW-1; format: functional, cell-based, Homo sapiens; conditions: Homo sapiens, EW-1;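 also: growth inhibition of the human EW-1 cell line, read out by a cell viability assay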
Description: SANGER: Inhibition of human EW-1 cell growth in a cell viability assay.

Which results are given for `O=C(c1cc(Cc2n[nH]c(=O)c3ccccc23)ccc1F)N1CCN(C(=O)C2CC2)CC1` [OLAPARIB]?
IC50 [1]: > 5 µM; IC50 [2]: > 5 µM; IC50 [3]: > 5 µM; IC50 [4]: > 5 µM; IC50 [5]: > 5 µM; IC50 [6]: > 5 µM; IC50 [7]: > 5 µM; IC50 [8]: > 5 µM; IC50 [9]: > 5 µM; IC50 [10]: > 5 µM; IC50 [11]: > 5 µM; IC50 [12]: > 5 µM; IC50 [13]: > 5 µM; IC50 [14]: > 5 µM; IC50 [15]: > 5 µM; IC50 [16]: > 5 µM; IC50 [17]: > 5 µM; IC50 [18]: > 5 µM; IC50 [19]: > 5 µM; IC50 [20]: > 5 µM; IC50 [21]: > 5 µM; IC50 [22]: > 5 µM; IC50 [23]: > 5 µM; IC50 [24]: > 5 µM; IC50 [25]: > 5 µM; IC50 [26]: 0.916 µM; IC50 [27]: > 5 µM; IC50 [28]: > 5 µM; IC50 [29]: > 5 µM; IC50 [30]: > 5 µM; IC50 [31]: > 5 µM; IC50 [32]: > 5 µM; IC50 [33]: > 5 µM; IC50 [34]: > 5 µM; IC50 [35]: > 5 µM; IC50 [36]: > 5 µM; IC50 [37]: > 5 µM; IC50 [38]: > 5 µM; IC50 [39]: > 5 µM; IC50 [40]: > 5 µM; IC50 [41]: > 5 µM; IC50 [42]: > 5 µM; IC50 [43]: > 5 µM; IC50 [44]: > 5 µM; IC50 [45]: > 5 µM; IC50 [46]: > 5 µM; IC50 [47]: > 5 µM; IC50 [48]: > 5 µM; IC50 [49]: > 5 µM; IC50 [50]: > 5 µM; IC50 [51]: > 5 µM
